Test results as given in US7265106B2, “Method for isolating (R)-tofisopam” (Vela Aquisition Corporation, priority 2003, dated 2007).
Values after ≈ are worked out from the molar mass of the structure shown.

Experiment: physchem
Format: physicochemical
Details: organic solvent or mixture

solubility: ~136 mg/mL (≈ 354 mM)
SMILES: CCC1C(C)=NN=C(c2ccc(OC)c(OC)c2)c2cc(OC)c(OC)cc21 (racemic) [racemic tofisopam, 1-(3,4-dimethoxyphenyl)-4-methyl-5-ethyl-7,8-dimethoxy-5H-2,3-benzodiazepine]
